Publication PMC9656702, “Unveiling a New Selenocyanate as a Multitarget Candidate with Anticancer, Antileishmanial and Antibacterial Potential” (Molecules, 2022)

Assays:
E. coli = assay: Growth curve study, E. coli; format: cell-based, Escherichia coli; details: for Bacterial growth of E. coli at 2MIC: highest concentration tested (2MIC), up to 48 h; for Lag phase (delay in bacterial growth), E. coli: lowest concentration evaluated (MIC/2)
Procedure: (§1) To further examine the inhibitory effect of the moderately active compounds 1a and 2a on the growth of the six bacterial strains tested, growth kinetic studies were performed. Thus, the six bacterial strains were exposed to three different concentrations of the test compounds using the MIC values (Table 4) as reference (2MIC, MIC, and MIC/2), while untreated cells were used as negative control. The bacterial growth was recorded by measuring the absorbance at several time points.
(§2) A stock solution of selected compounds 1a and 2a was prepared in DMSO, and different concentrations equivalent to 2MIC, MIC, and MIC/2 in TSB of each compound were dispensed into a 96-well plate with a final volume of 100 µL, while only TSB was added for the control wells. Then, 100 µL of a diluted suspension of bacterial cells in TSB with an optical density of 0.125 measured at 600 nm (inoculum of approximately 10^5 CFU/mL) was added to each well, and the incubation was monitored by spectrophotometric measurements. The absorbance was recorded at 600 nm against time (h) at predetermined periods on a microplate reader. The experiments were performed in triplicate.

K. pneumoniae = assay: Growth curve study, K. pneumoniae; format: cell-based, Klebsiella pneumoniae; details: for Bacterial growth of K. pneumoniae at 2MIC: highest concentration tested (2MIC), up to 48 h
Procedure: as §1, §2

C. freundii = assay: Growth curve study, C. freundii; format: cell-based, Citrobacter freundii; details: for Bacterial growth of C. freundii at 2MIC: highest concentration tested (2MIC), up to 48 h
Procedure: as §1, §2

S. aureus = assay: Growth curve study, S. aureus; format: cell-based, Staphylococcus aureus; details: for Bacterial growth of S. aureus at 2MIC: highest concentration tested (2MIC), up to 48 h
Procedure: as §1, §2

S. faecalis = assay: Growth curve study, S. faecalis; format: cell-based, Streptococcus faecalis; details: for Bacterial growth of S. faecalis at 2MIC: highest concentration tested (2MIC), up to 48 h
Procedure: as §1, §2

S. epidermidis = assay: Growth curve study, S. epidermidis; format: cell-based, Staphylococcus epidermidis; details: for Bacterial growth of S. epidermidis at sub-MIC concentration: 6.25 µg/mL; for Bacterial growth of S. epidermidis at 2MIC: highest concentration tested (2MIC), up to 48 h
Procedure: as §1, §2

[1] = DPPH radical scavenging assay; details: 0.06 mg/mL, after two hours
Procedure: Oxidative stress has been associated with a wide range of pathologies. […] Measurements were performed at 2 concentrations and recorded at eight different time points. Ascorbic acid (Asc) and Trolox were used as positive controls. The results are presented as the percentage of DPPH radical scavenging activity and are outlined in Figure 2.
The antioxidant activity of the selenocompounds was determined by the DPPH assay following a procedure previously published by our group. Briefly, the compounds were dissolved in absolute methanol at a concentration of 1 mg/mL, and a dilution was prepared. Asc and Trolox were used as positive controls. A methanolic solution (100 µM) of DPPH˙ was made daily and […]. The stability of the radical through the time of analysis was checked by absorbance measurements of this solution. A volume of 100 µL of DPPH in methanol was added to 100 µL of the compounds’ solutions to a final concentration of 0.03 or 0.06 mg/mL, and the decolorization of the purple radical to the yellowish reduced form was followed by recording the absorbance at 517 nm. Determinations were recorded at eight different time intervals from 0 to 120 min on a BioTeck PowerWave XS spectrophotometer and the data were collected using KCJunior software. All the measurements were carried out in triplicate. […]

[2] = lowest concentration tested, 12.5 µg/mL

| Structure (SMILES) | Bacterial growth of E. coli at 2MIC (E. coli) | Lag phase (delay in bacterial growth), E. coli (E. coli) [h] | Log phase before bacterial growth, K. pneumoniae (K. pneumoniae; 25 µg/mL) [h] | Log phase before bacterial growth, K. pneumoniae (K. pneumoniae; 50 µg/mL) [h] | Bacterial growth of K. pneumoniae at 2MIC (K. pneumoniae) | Bacterial growth of C. freundii at 2MIC (C. freundii) | Log phase, C. freundii (C. freundii; lowest concentration (50 µg/mL)) [h] | Delay in the bacterial growth, S. aureus (S. aureus; MIC concentration (25 µg/mL)) [h] | Bacterial growth of S. aureus at 2MIC (S. aureus) | Bacterial growth of S. aureus at MIC/2 (S. aureus; [2]) | Bacterial growth of S. faecalis at 2MIC (S. faecalis) | Bacterial growth of S. faecalis at MIC/2 (S. faecalis; [2]) | Bacterial growth of S. epidermidis at sub-MIC concentration (S. epidermidis) | Bacterial growth of S. epidermidis at 2MIC (S. epidermidis) | DPPH radical scavenging activity [1] [%] | Bacterial growth of K. pneumoniae at the concentrations tested (K. pneumoniae; 2MIC, MIC and MIC/2) |
| --- | --- | --- | --- | --- | --- | --- | --- | --- | --- | --- | --- | --- | --- | --- | --- | --- |
| N#C[Se]Cc1ccc2c(c1)OCO2 [Compound 2a, 5-(Selenocyanatomethyl)benzo[d][1,3]dioxole] | no bacterial growth was detected | 10 | 28 | 42 | no bacterial growth was detected | no bacterial growth was detected | 43 | 44 | no bacterial growth was detected | exponential growth of bacteria was observed | no bacterial growth was detected | exponential growth of bacteria was observed | a delay could be observed | no bacterial growth was detected |  |  |
| O=C(CC[Se]Cc1ccc2c(c1)OCO2)[c-]1cccc1.[Fe+2].c1cc[cH-]c1 [Compound 2c, 3-((Benzo[d][1,3]dioxol-5-ylmethyl)selanyl)-1-ferrocenylpropan-1-one] |  |  |  |  |  |  |  |  |  |  |  |  |  |  | 76.1 |  |
| N#C[Se]C/C=C/c1ccccc1 [Compound 1a, (E)-(3-selenocyanatoprop-1-en-1-yl)benzene] | no bacterial growth was detected | 41 |  |  | no bacterial growth was detected | no bacterial growth was detected |  |  | no bacterial growth was detected |  | no bacterial growth was detected |  | a delay could be observed | no bacterial growth was detected |  | no growth was detected |
| O=C(CC[Se]CC=Cc1ccccc1)[c-]1cccc1.[Fe+2].c1cc[cH-]c1 [Compound 1c, 3-(Cinnamylselanyl)-1-ferrocenylpropan-1-one] |  |  |  |  |  |  |  |  |  |  |  |  |  |  | 72.6 |  |
